Results taken from patent publication US20240000814A1, “TREATING ALCOHOL USE DISORDER USING PSILOCYBIN” (New York University, priority 2022, published 2024).
Several values for one entry are separate records, joined by “and”; a condition that tells them apart may be missing. Equal values may be shown once.

Tests used:
AUD patients [1] = assay: Double-blind randomized trial of psilocybin-assisted treatment of AUD: drinking outcomes by timeline followback; format: in vivo, human; settings: for % of Heavy drinking days (PHDD), mean: 32-week double-blind follow-up (weeks 5-36) after first dose, oral psilocybin 25 mg/70 kg then 25-40 mg/70 kg or diphenhydramine 50 mg then 50-100 mg at weeks 4 and 8, with psychotherapy; for Abstinence, NNT / Abstinence, OR / No heavy drinking, NNT / No heavy drinking, OR / WHO risk level Decrease 1, NNT / WHO risk level Decrease 1, OR / WHO risk level Decrease 2, NNT / WHO risk level Decrease 2, OR / WHO risk level Decrease 3, NNT / WHO risk level Decrease 3, OR: psilocybin vs diphenhydramine
Method: Design: In this double-blind trial, participants were offered 12 weeks of manualized psychotherapy and were randomly assigned to receive psilocybin vs. diphenhydramine during two day-long medication sessions at week 4 and 8. Outcomes were assessed over the 32-week double-blind period following the first dose of study medication.
Interventions: Study medications were psilocybin 25 mg/70 kg vs. diphenhydramine 50 mg (first session) and psilocybin 25-40 mg/70 kg vs. diphenhydramine 50-100 mg (second session). Psychotherapy included motivational enhancement therapy and cognitive-behavioral therapy.
Qualifying participants were assessed at screening, baseline (week 0), and weeks 4, 5, 8, 9, 12, 24, and 36. They were randomly assigned in a 1:1 ratio to receive either psilocybin or diphenhydramine, administered in two eight-hour sessions at weeks 4 and 8. All participants who completed the double-blind observation period (weeks 5-36) and still met safety criteria were offered an open-label psilocybin session at week 38, including four additional psychotherapy sessions and assessment for an additional 18 weeks. Participants received up to a total of $560 for completing assessments in the course of the trial, but were not reimbursed for attending the therapy and medication sessions.
All participants were offered a total of 12 psychotherapy sessions from a team of two therapists including a licensed psychiatrist: 4 before the first medication session, 4 between the first and second medication sessions, and 4 in the month following the second medication session. The psychotherapy, described in detail in a separate publication,^41 included motivational interviewing and cognitive behavioral therapy for AUD as well as material designed to help the participants to manage and make use of the psychoactive effects of the study medication.
Study medication was taken orally in a single opaque capsule of unvarying appearance and weight. Psilocybin doses were weight-based to control for participant body weight, which ranged from 49.0 to 116.1 (mean=78.3, SD=15.6) kg. Doses for the first session were psilocybin 25 mg/70 kg or diphenhydramine 50 mg. Participants received an increased dose in the second session if there were no dose-limiting adverse events and they agreed to the increase. The increased dose of psilocybin was 30 mg/70 kg if the participant's total score on the Pahnke-Richards Mystical Experience Questionnaire (MEQ)^42 was ≥0.6 in the first session (indicating a robust subjective response to the 25 mg/70 kg dose), or 40 mg/70 kg if the MEQ total score in the first session was <0.6. The increased dose of diphenhydramine was 100 mg, regardless of subjective response.
Study medication was administered at approximately 9 AM, after which participants were required to stay in the session room with the therapists for at least 8 hours (except for bathroom breaks). During the session, participants were encouraged to lie on a couch wearing eyeshades and headphones providing a standardized playlist of music. Medications were available in the session room to treat hypertension, severe anxiety, or psychotic symptoms.
The pre-specified primary drinking outcome was the percentage of heavy drinking days (PH DD) during […], assessed at weeks 8, 12, 24, and 36 using the timeline followback, a reliable and valid calendar-based method which is the gold standard outcome for AUD clinical trials.^43-47 Secondary outcomes included percent drinking days (PDD), average drinks per day (DPD), and dichotomous outcomes: abstinence, lack of heavy drinking days, and reduction in World Health Organization risk level^48 by one, two, or three levels. Hair or fingernail samples were collected at week 24 and assayed for ethylglucuronide (EtG) concentration to confirm self-reported abstinence. The Short Index of Problems (SIP-2R)^49 was used to assess drinking-related problems at baseline and weeks 12, 24, and 36. […]

[2] = test system: alcohol-dependent participants; settings: psilocybin 21-28 mg/70 kg, open-label; cited from earlier work
AUD patients [3] = assay: Subjective effects of study medication, Mystical Experience Questionnaire (MEQ); format: in vivo, human
Method: Subjective effects of psilocybin vs. diphenhydramine were assessed using the States of Consciousness Questionnaire,^42 containing the 43-item Mystical Experience Questionnaire (MEQ), completed immediately after each medication session.
MEQ scores for the first and second medication sessions were computed and contrasted by group (psilocybin vs. diphenhydramine) using t-tests for independent samples.

AUD patients [4] = assay: Safety: blood pressure, heart rate and adverse events in the trial; format: in vivo, human
Method: Blood pressure and heart rate were assessed at 30- to 60-minute intervals during the first 6 hours of each medication session. Adverse events were solicited at each post-screening assessment.
Blood pressure and heart rate treatment contrasts were based on MMRM with fixed, categorical effects of treatment and assessment, a treatment-by-assessment interaction, and a fixed covariate (value of each outcome prior to drug administration). All adverse events occurring after informed consent were MedDRA-coded and tabulated, and prevalence within treatment groups (proportion of participants affected) was compared using Fisher's exact tests.

[5] = 32-week double-blind follow-up (weeks 5-36)
[6] = 32 weeks following the first administration of study medication
[7] = treatment-emergent, within 48 hours of study drug administration

CN(C)CCc1c[nH]c2cccc(OP(=O)(O)O)c12 [Psilocybin, [3-[2-(dirnethylamino)ethyl]-1H-indo1-4-yl] dihydrogen phosphate]
% of Drinking days, between-group Hedges g (AUD patients [1]; 32-week double-blind follow-up): 0.4
% of Drinking days, between-group mean difference (diphenhydramine-psilocybin) (AUD patients [1]; 32-week double-blind follow-up): 13.44%
Drinks per day, between-group Hedges g (AUD patients [1]; 32-week double-blind follow-up): 0.54
Drinks per day, between-group mean difference (diphenhydramine-psilocybin) (AUD patients [1]; 32-week double-blind follow-up): 1.09 Drinks per day
% of Drinking days (PDD), mean (AUD patients [1]; [5]): 29.39%
% of Heavy drinking days, between-group mean difference (diphenhydramine-psilocybin) (AUD patients [1]; [5]): 13.86%
Drinks per day (DPD), mean (AUD patients [1]; [5]): 1.17 Drinks per day
% of Heavy drinking days (PHDD), mean (AUD patients [1]): 9.71%
% of Heavy drinking days (PHDD), mean (AUD patients [1]; listed as psilocybin): 9.7%
% of Heavy drinking days, between-group mean difference (diphenhydramine-psilocybin) (AUD patients [1]; 32-week double-blind follow-up (weeks 5-36), listed as psilocybin): 13.86% and 13.9%
% of Heavy drinking days, between-group Hedges g (AUD patients [1]; 32-week double-blind follow-up, positive = lower mean in psilocybin group): 0.52
PHDD of psilocybin-treated participants as percent of that in the diphenhydramine-treated group (AUD patients [1]; 32 weeks of double-blind observation): 41%
Abstinence, % of participants (AUD patients [1]; Weeks 5-36): 22.9%
Abstinence, No. of participants (AUD patients [1]; Weeks 5-36): 11
No heavy drinking, % of participants (AUD patients [1]; Weeks 5-36): 33.3%
No heavy drinking, No. of participants (AUD patients [1]; Weeks 5-36): 16
WHO risk level Decrease 1, % of participants (AUD patients [1]; Weeks 5-36): 83.3%
WHO risk level Decrease 2, % of participants (AUD patients [1]; Weeks 5-36): 60.4%
WHO risk level Decrease 2, No. of participants (AUD patients [1]; Weeks 5-36): 29
WHO risk level Decrease 3, % of participants (AUD patients [1]; Weeks 5-36): 29.2%
WHO risk level Decrease 3, No. of participants (AUD patients [1]; Weeks 5-36): 14
Abstinence, NNT (AUD patients [1]; Weeks 5-36): 7.1
Abstinence, OR (AUD patients [1]; Weeks 5-36): 3.05
No heavy drinking, NNT (AUD patients [1]; Weeks 5-36): 4.5
No heavy drinking, OR (AUD patients [1]; Weeks 5-36): 4
WHO risk level Decrease 1, NNT (AUD patients [1]; Weeks 5-36): 8.2
WHO risk level Decrease 1, OR (AUD patients [1]; Weeks 5-36): 2.03
WHO risk level Decrease 2, NNT (AUD patients [1]; Weeks 5-36): 4.9
WHO risk level Decrease 2, OR (AUD patients [1]; Weeks 5-36): 2.29
WHO risk level Decrease 3, NNT (AUD patients [1]; Weeks 5-36): 6.3
WHO risk level Decrease 3, OR (AUD patients [1]; Weeks 5-36): 2.68
WHO risk level Decrease 1, No. of participants (AUD patients [1]; Weeks 5-36, relative to 12 weeks prior to screening): 40
Abstinence, % of participants (AUD patients [1]; Weeks 33-36): 47.9%
Abstinence, No. of participants (AUD patients [1]; Weeks 33-36): 23
No heavy drinking, % of participants (AUD patients [1]; Weeks 33-36): 62.5%
No heavy drinking, No. of participants (AUD patients [1]; Weeks 33-36): 30
WHO risk level Decrease 1, % of participants (AUD patients [1]; Weeks 33-36): 89.6%
WHO risk level Decrease 1, No. of participants (AUD patients [1]; Weeks 33-36): 43
WHO risk level Decrease 2, % of participants (AUD patients [1]; Weeks 33-36): 60.4%
WHO risk level Decrease 2, No. of participants (AUD patients [1]; Weeks 33-36): 29
WHO risk level Decrease 3, % of participants (AUD patients [1]; Weeks 33-36): 37.5%
WHO risk level Decrease 3, No. of participants (AUD patients [1]; Weeks 33-36): 18
Abstinence, NNT (AUD patients [1]; Weeks 33-36): 4.3
Abstinence, OR (AUD patients [1]; Weeks 33-36): 2.84
No heavy drinking, NNT (AUD patients [1]; Weeks 33-36): 4.4
No heavy drinking, OR (AUD patients [1]; Weeks 33-36): 2.5
WHO risk level Decrease 1, NNT (AUD patients [1]; Weeks 33-36): 4
WHO risk level Decrease 1, OR (AUD patients [1]; Weeks 33-36): 4.74
WHO risk level Decrease 2, NNT (AUD patients [1]; Weeks 33-36): 4.9
WHO risk level Decrease 2, OR (AUD patients [1]; Weeks 33-36): 2.29
WHO risk level Decrease 3, NNT (AUD patients [1]; Weeks 33-36): 5.1
WHO risk level Decrease 3, OR (AUD patients [1]; Weeks 33-36): 2.78
Tolerability [2]: well tolerated
Mean MEQ score (AUD patients [3]; Session 1, psilocybin 25 mg/70 kg or diphenhydramine 50 mg): 0.59 (SD=0.24)
Mean MEQ score (AUD patients [3]; Session 2, psilocybin 25-40 mg/70 kg or diphenhydramine 50-100 mg): 0.64 (SD=0.21)
Adverse events reported, number (AUD patients [4]; [6]): 119
Serious adverse events (AUD patients [4]; [6]): no serious adverse events
Time by which blood pressure was no longer significantly elevated (AUD patients [4]; after drug administration): ≤ 360 min
Time until which heart rate was higher (AUD patients [4]; after drug administration): approximately 300 minutes
Anxiety and nausea during administration sessions (AUD patients [4]; compared with diphenhydramine): reported more frequently
Heart rate relative to diphenhydramine group (AUD patients [4]; during medication sessions): higher
Systolic and diastolic blood pressure relative to diphenhydramine (AUD patients [4]; during medication sessions): increased
Participants reporting passive suicidal ideation during a medication session (AUD patients [4]; for 15 minutes, resolved without sequelae): One
Persistent disturbances suggestive of psychosis or hallucinogen persisting perception disorder (AUD patients [4]; in vivo): no persistent disturbances
Severity of adverse events associated with administration (AUD patients [4]; in vivo): mostly mild and self-limiting
Participants given diazepam 10 mg by mouth for anxiety (AUD patients [4]; second medication session): Two
Headaches, participants affected / treated (AUD patients [4]; [7]): 21/48
Headaches, percent of participants (AUD patients [4]; [7]): 43.8%
